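Interpolation was linear, between the two tested concentrations surrounding the appropriate level; five concentrations were tested over 48 hours in 96-well plates. GI50 = concentration required for 50% inhibition of growth.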 Active and inactive are the calls of the source. No stated cut-off is given here; in the data, active = GI50 up to about 1.1 µM and inactive = higher.
Tests used:
Assay in all cases: NCI-60 cell line screen, 48 h
ACHN = system: ACHN
OVCAR-5 = system: OVCAR-5
Malme-3M = system: Malme-3M
TK-10 = system: TK-10
KM12 = system: KM12
786-0 = system: 786-0
SK-MEL-5 = system: SK-MEL-5
SW-620 = system: SW-620
CCRF-CEM = system: CCRF-CEM
A549 = system: A549
U-251 = system: U-251
M14 = system: M14
HOP-92 = system: HOP-92
COLO 205 = system: COLO 205
HOP-62 = system: HOP-62
SF-539 = system: SF-539
UACC-62 = system: UACC-62
SK-OV-3 = system: SK-OV-3

Measured: GI50

CCOc1cc2c[n+](C)c3c4cc(OC)c(OC)cc4ccc3c2cc1OC
inactive: ACHN > 100 µM | OVCAR-5 > 100 µM | Malme-3M > 100 µM | TK-10 > 100 µM | KM12 > 100 µM | 786-0 17.7 µM | SK-MEL-5 > 100 µM | SW-620 > 100 µM | CCRF-CEM 20.8 µM | A549 > 100 µM | U-251 > 100 µM | M14 > 100 µM | HOP-92 > 100 µM | COLO 205 > 100 µM | HOP-62 > 100 µM | SF-539 > 100 µM

CC(C)(C)c1cc(Cc2ccc([N+](C)(C)C)cc2)c(O)c(C(C)(C)C)c1
inactive: ACHN > 100 µM | OVCAR-5 22.2 µM | Malme-3M 17.9 µM | TK-10 24.6 µM | KM12 15.7 µM | 786-0 24.2 µM | SK-MEL-5 10.6 µM | SW-620 23.2 µM | CCRF-CEM 12.5 µM | A549 33.9 µM | U-251 12.7 µM | M14 18.2 µM | UACC-62 14.3 µM | HOP-62 16.6 µM | SF-539 16.5 µM | SK-OV-3 25.2 µM

COc1ccc([C@@H]2OC(=O)C3C2C(=O)O[C@H]3c2ccc(OC)c(OC)c2)cc1OC (stereo partly specified)
inactive: ACHN > 100 µM | Malme-3M > 100 µM | TK-10 > 100 µM | KM12 > 100 µM | 786-0 > 100 µM | SK-MEL-5 > 100 µM | SW-620 > 100 µM | CCRF-CEM > 100 µM | A549 > 100 µM | U-251 > 100 µM | M14 > 100 µM | HOP-92 > 100 µM | COLO 205 > 100 µM | UACC-62 > 100 µM | HOP-62 > 100 µM | SF-539 > 100 µM | SK-OV-3 > 100 µM

CN(C)C(c1ccccc1)C(O)c1ccccc1 (stereo unspecified)
inactive: ACHN > 100 µM | Malme-3M > 100 µM | TK-10 > 100 µM | KM12 > 100 µM | 786-0 > 100 µM | SW-620 > 100 µM | CCRF-CEM > 100 µM | A549 > 100 µM | U-251 > 100 µM | M14 > 100 µM | COLO 205 > 100 µM | UACC-62 > 100 µM | HOP-62 > 100 µM | SF-539 > 100 µM | SK-OV-3 > 100 µM

Cc1cccc(C)c1NC(=O)C(=O)CC(=O)c1cccc([N+](=O)[O-])c1
inactive: ACHN > 100 µM | OVCAR-5 > 100 µM | Malme-3M > 100 µM | TK-10 > 100 µM | KM12 > 100 µM | 786-0 > 100 µM | SK-MEL-5 > 100 µM | SW-620 > 100 µM | CCRF-CEM > 100 µM | A549 > 100 µM | U-251 > 100 µM | M14 > 100 µM | HOP-92 > 100 µM | COLO 205 > 100 µM | UACC-62 > 100 µM | HOP-62 > 100 µM | SF-539 > 100 µM

Cc1ccc(S(=O)(=O)c2ccc(NC(=O)SCCC(=O)O)cc2)cc1
inactive: ACHN > 100 µM | OVCAR-5 > 100 µM | TK-10 > 100 µM | KM12 > 100 µM | 786-0 > 100 µM | SW-620 > 100 µM | CCRF-CEM > 100 µM | A549 > 100 µM | U-251 > 100 µM | M14 > 100 µM | COLO 205 > 100 µM | UACC-62 > 100 µM | HOP-62 > 100 µM | SF-539 > 100 µM

CCOC(=O)C1=C(C(=O)OCC)C2c3ccccc3C=CN2C(C(=O)OCC)=C(SC)S1 (stereo unspecified)
inactive: ACHN > 100 µM | OVCAR-5 > 100 µM | Malme-3M > 100 µM | TK-10 > 100 µM | 786-0 > 100 µM | SK-MEL-5 32.4 µM | SW-620 92.9 µM | CCRF-CEM 30.8 µM | A549 47.6 µM | U-251 50.7 µM | M14 89.1 µM | COLO 205 91.6 µM | UACC-62 58.1 µM | HOP-62 > 100 µM | SF-539 > 100 µM | SK-OV-3 > 100 µM

COc1ccc(S(=O)(=O)NNS(C)(=O)=O)cc1
inactive: ACHN > 100 µM | Malme-3M > 100 µM | TK-10 > 100 µM | KM12 > 100 µM | 786-0 > 100 µM | SK-MEL-5 > 100 µM | SW-620 > 100 µM | CCRF-CEM 70 µM | A549 > 100 µM | U-251 > 100 µM | M14 > 100 µM | COLO 205 > 100 µM | UACC-62 > 100 µM | HOP-62 > 100 µM | SF-539 > 100 µM

CSc1nc(-c2ccccc2)nc(N2CCOCC2)[s+]1
inactive: ACHN > 100 µM | OVCAR-5 > 100 µM | Malme-3M > 100 µM | TK-10 > 100 µM | KM12 > 100 µM | 786-0 > 100 µM | SK-MEL-5 > 100 µM | SW-620 > 100 µM | CCRF-CEM 22.3 µM | A549 > 100 µM | U-251 92.7 µM | M14 > 100 µM | COLO 205 37 µM | UACC-62 28.6 µM | HOP-62 > 100 µM | SF-539 > 100 µM | SK-OV-3 > 100 µM

CN(C)CCC(CCN(C)C)=NOC(=O)c1ccccc1
inactive: ACHN > 100 µM | Malme-3M > 100 µM | TK-10 > 100 µM | KM12 > 100 µM | 786-0 > 100 µM | SK-MEL-5 > 100 µM | SW-620 > 100 µM | CCRF-CEM > 100 µM | A549 > 100 µM | U-251 > 100 µM | M14 > 100 µM | COLO 205 > 100 µM | UACC-62 > 100 µM | HOP-62 > 100 µM | SF-539 > 100 µM | SK-OV-3 > 100 µM

COc1ccc(CC(=O)c2cc(OC)c(OC)cc2C)cc1OC
inactive: ACHN 29.4 µM | OVCAR-5 > 100 µM | Malme-3M > 100 µM | TK-10 > 100 µM | KM12 > 100 µM | 786-0 > 100 µM | SK-MEL-5 24.9 µM | SW-620 > 100 µM | CCRF-CEM > 100 µM | A549 71.6 µM | U-251 > 100 µM | M14 > 100 µM | COLO 205 > 100 µM | UACC-62 38 µM | HOP-62 > 100 µM | SK-OV-3 > 100 µM

COc1ccc(C2c3cc4c(cc3OC(O)(CO)C2C(=O)O)OCO4)c(OC)c1OC.COc1ccc(C2c3cc4c(cc3OC3(O)COC(=O)C23)OCO4)c(OC)c1OC (stereo unspecified)
inactive: ACHN > 100 µM | Malme-3M > 100 µM | TK-10 > 100 µM | 786-0 > 100 µM | SK-MEL-5 > 100 µM | SW-620 > 100 µM | CCRF-CEM 39.4 µM | A549 > 100 µM | U-251 > 100 µM | M14 > 100 µM | HOP-92 29.2 µM | COLO 205 > 100 µM | UACC-62 > 100 µM | HOP-62 > 100 µM | SF-539 > 100 µM | SK-OV-3 > 100 µM

Reference: ChEMBL document CHEMBL1201862, “PubChem BioAssay data set” (2004)
